Source: US20130261154A1 (priority 2010, published 2013)

Experiments:
Assay type in all cases: in vivo
Plasmopara viticola = experiment: Test A: grape downy mildew, spray after inoculation of grape seedlings; details: inoculated, 24 h later sprayed to run-off, visual disease rating, test concentration not given
Text: General protocol for preparing test suspensions for Test A-C: The test compounds were first dissolved in acetone in an amount equal to 3% of the final volume and then suspended at the desired concentration (in ppm) in acetone and purified water (50/50 mix by volume) containing 250 ppm of the surfactant Trem® 014 (polyhydric alcohol esters). The resulting test suspensions were then used in Tests A-C. Spraying a 40 ppm test suspension to the point of run-off on the test plants was equivalent to a rate of 160 g/ha.
Grape seedlings were inoculated with a spore suspension of Plasmopara viticola (the causal agent of grape downy mildew) and incubated in a saturated atmosphere at 20° C. for 24 h. After a short drying period, the test suspension was sprayed to the point of run-off on the grape seedlings, which were then moved to a growth chamber at 20° C. for 5 days, after which time the grape seedling were placed back into a saturated atmosphere at 20° C. for 24 h. Upon removal, visual disease ratings were made.
Results for Tests A-C are given in Table A. In the table, a rating of 100 indicates 100% disease control and a rating of 0 indicates no disease control (relative to the controls).

Phytophthora infestans [1] = details: tomato seedlings; sprayed to run-off, inoculated the following day; visual disease rating; test concentration not given
Phytophthora infestans [2] = details: tomato seedlings; inoculated, 17 h later sprayed to run-off; visual disease rating; test concentration not given

Compound | Test A disease control rating (100 = 100% disease control, 0 = no disease control relative to the controls) (Plasmopara viticola) [%] | Test B disease control rating (100 = 100% disease control, 0 = no disease control relative to the controls) (Phytophthora infestans [1]) [%] | Test C disease control rating (100 = 100% disease control, 0 = no disease control relative to the controls) (Phytophthora infestans [2]) [%]
Cc1cc(C(F)(F)F)nn1CC(=O)N1CCC(c2nc(C3=NOC(CCCCOc4c(F)cccc4F)C3)cs2)CC1 (stereo not drawn) [Compound 12] | 100 | 99 | 92
Cc1cc(C(F)(F)F)nn1CC(=O)N1CCC(c2nc(C3=NOC(CCCOc4c(F)cccc4F)C3)cs2)CC1 (stereo not drawn) [Compound 11] | 100 | 100 | 99
COc1cc(F)c(OCC2CC(c3csc(C4CCN(C(=O)Cn5nc(C(F)(F)F)cc5C)CC4)n3)=NO2)c(F)c1 (stereo not drawn) [Compound 16] | 99 | 100 | 99
Cc1cc(C(F)(F)F)nn1CC(=O)N1CCC(c2nc(C3=NOC(CCCn4c(=O)sc5ccc(Cl)cc54)C3)cs2)CC1 (stereo not drawn) [Compound 8, 5-chloro-3-[3-[4,5-dihydro-3-[2-[1-[2-[5-methyl-3-(trifluoromethyl)-1H-pyrazol-1-yl]acetyl]-4-piperidinyl]-4-thiazolyl]-5-isoxazolyl]propyl]-2(3H)-benzothiazolone] | 0 | 100 | 0
COc1ccc(OCCC2CC(c3csc(C4CCN(C(=O)Cn5nc(C(F)(F)F)cc5C)CC4)n3)=NO2)c(F)c1 (stereo not drawn) [Compound 13] | 100 | 100 | 95
Cc1cc(C(F)(F)F)nn1CC(=O)N1CCC(c2nc(C3=NOC(CCOc4ccc(C#N)cc4F)C3)cs2)CC1 (stereo not drawn) [Compound 15] | 100 | 100 | 99
COc1cc(F)c(OCCC2CC(c3csc(C4CCN(C(=O)Cn5nc(C(F)(F)F)cc5C)CC4)n3)=NO2)c(F)c1 (stereo not drawn) [Compound 18] | 79 | 71 | 17
Cc1cc(C(F)(F)F)nn1CC(=O)N1CCC(c2nc(C3=NOC(CCOc4c(F)cccc4F)C3)cs2)CC1 (stereo not drawn) [Compound 2, 1-[4-[4-[5-[2-(2,6-difluorophenoxy)ethyl]-4,5-dihydro-3-isoxazolyl]-2-thiazolyl]-1-piperidinyl]-2-[5-methyl-3-(trifluoromethyl)-1H-pyrazol-1-yl]ethanone] | 96 | 100 | 99
Cc1cc(C(F)(F)F)nn1CC(=O)N1CCC(c2nc(C3=NOC(CCOc4c(F)cc(C#N)cc4F)C3)cs2)CC1 (stereo not drawn) [Compound 14] | 99 | 100 | 73
COC(=O)c1ccc(OCCC2CC(c3csc(C4CCN(C(=O)Cn5nc(C(F)(F)F)cc5C)CC4)n3)=NO2)c(F)c1 (stereo not drawn) [Compound 17] | 100 | 100 | 99
Cc1cc(C(F)(F)F)nn1CC(=O)N1CCC(c2nc(C3=NOC(CCCN4C(=O)c5ccccc5C4=O)C3)cs2)CC1 (stereo not drawn) [Compound 5] | 67 | 100 | 99
Cc1cc(C(F)(F)F)nn1CC(=O)N1CCC(c2nc(C3=NOC(COCN4C(=O)c5ccccc5C4=O)C3)cs2)CC1 (stereo not drawn) [Compound 3, 2-[[[4,5-dihydro-3-[2-[1-[2-[5-methyl-3-(trifluoromethyl)-1H-pyrazol-1-yl]acetyl]-4-piperidinyl]-4-thiazolyl]-5-isoxazolyl]methoxy]methyl]-1H-isoindole-1,3(2H)-dione] | 40 | 95 | 46
Cc1cc(C(F)(F)F)nn1CC(=O)N1CCC(c2nc(C3=NOC(CC(=O)Nc4c(F)cccc4F)C3)cs2)CC1 (stereo not drawn) [Compound 6] | 0 | 9 | 46
Cc1cc(C(F)(F)F)nn1CC(=O)N1CCC(c2nc(C3=NOC(CC(=O)NCc4c(F)cccc4F)C3)cs2)CC1 (stereo not drawn) [Compound 4, N-[(2,6-difluorophenyl)methyl]-4,5-dihydro-3-[2-[1-[2-[5-methyl-3-(trifluoromethyl)-1H-pyrazol-1-yl]acetyl]-4-piperidinyl]-4-thiazolyl]-5-isoxazoleacetamide] | 24 | 100 | 99
Cc1cc(C(F)(F)F)nn1CC(=O)N1CCC(c2nc(C3=NOC(CCON4C(=O)c5ccccc5C4=O)C3)cs2)CC1 (stereo not drawn) [Compound 9] | 0 | 99 | 73
Cc1cc(C(F)(F)F)nn1CC(=O)N1CCC(c2nc(C3=NOC(COc4c(F)cccc4F)C3)cs2)CC1 (stereo not drawn) [Compound 10] | 0 | 100 | 64
Cc1cc(C(F)(F)F)nn1CC(=O)N1CCC(c2nc(C3=NOC(CCOc4ccccc4I)C3)cs2)CC1 (stereo not drawn) [Compound 1] | 86 | 99 | 91
